Assay results as given in ChEMBL document CHEMBL5380773, “Novel Feleucin-K3-Derived Peptides Modified with Sulfono-γ-AA Building Blocks Targeting Pseudomonas aeruginosa and Methicillin-Resistant Staphylococcus aureus Infections” (J Med Chem, 2023).
≈ marks a conversion by molar mass, not a printed value. Calls of active or inactive are those of the source. No cut-off for these calls is given here. Numbered stars: 1 amine (or outer) side, 2 acyl side, 3 side chain; on linkers, the order of the positions; unused ones are H or OH. Square brackets hold non-standard residues; d marks the D form. Peptide text beside a SMILES is read from it. * marks the point of attachment. X2 = CC(C)C[C@H](N)CN(CC(=O)[*:2])[*:1]; X1 = O=S(=O)(c1ccc(I)cc1)*

What was measured:
Staphylococcus aureus [1] = assay: Antimicrobial activity against methicillin resistant Staphylococcus aureus ATCC 33591 incubated for 18 hrs by microdilution method; type: functional
Erythrocyte = assay: Hemolytic activity against mouse red blood cells incubated for 1 hr; type: toxicity, cell-based
Staphylococcus aureus [2] = assay: Antibiofilm activity against Staphylococcus aureus ATCC 25923 at 4 to 8 ug/ml incubated for 24 hrs by crystal violet staining based microplate reader analysis; type: functional, organism-based; conditions: dose 4-8 µg/ml
Staphylococcus aureus [3] = assay: Antibiofilm activity against methicillin resistant staphylococcus aureus ATCC 33591 at 4 to 8 ug/ml incubated for 24 hrs by crystal violet staining based microplate reader analysis; type: functional, organism-based; conditions: dose 4-8 µg/ml
[4] = test system: Staphylococcus epidermidis; assay: Antibiofilm activity against Staphylococcus epidermidis ATCC 12228 at 4 to 8 ug/ml incubated for 24 hrs by crystal violet staining based microplate reader analysis; type: functional, organism-based; conditions: dose 4-8 µg/ml
[5] = test system: Staphylococcus epidermidis; assay: Bactericidal activity against Staphylococcus epidermidis ATCC 12228 at 4 times MIC after 0.5 hrs; type: functional, organism-based
Staphylococcus aureus [6] = assay: Bactericidal activity against Staphylococcus aureus ATCC 25923 at 4 times MIC after 2 to 4 hrs; type: functional, organism-based; conditions: time 2-4 hrs
Pseudomonas aeruginosa [7] = assay: Antibiofilm activity against Pseudomonas aeruginosa ATCC 27853 assessed as reduction in biofilm numbers at 1 times MBIC90 incubated for 24 hrs by confocal laser scanning microscopy analysis; type: functional, organism-based
Staphylococcus aureus [8] = assay: Antibiofilm activity against methicillin resistant Staphylococcus aureus ATCC 33591 assessed as reduction in biofilm mass; type: functional, organism-based
[9] = test system: Staphylococcus epidermidis; assay: Antibiofilm activity against Staphylococcus epidermidis ATCC 12228 assessed as reduction in biofilm mass; type: functional, organism-based
Pseudomonas aeruginosa [10] = assay: Antibiofilm activity against Pseudomonas aeruginosa ATCC 27853 assessed as reduction in biofilm structures at MBIC90 by scanning electron microscopic analysis; type: functional, organism-based
Staphylococcus aureus [11] = assay: Antibiofilm activity against methicillin resistant Staphylococcus aureus ATCC 33591 assessed as reduction in biofilm structures at MBIC90 by scanning electron microscopic analysis; type: functional, organism-based
Pseudomonas aeruginosa [12] = assay: Bactericidal activity against Pseudomonas aeruginosa ATCC 27853 at 4 times MIC after 5 mins by time kill assay; type: functional, organism-based
Pseudomonas aeruginosa [13] = assay: Bactericidal activity against Pseudomonas aeruginosa ATCC 27853 at 4 times MIC after 30 mins by time kill assay; type: functional, organism-based
Escherichia coli = assay: Bactericidal activity against Escherichia coli ATCC 25922 at 1 to 2 times MIC after 2 to 3 hrs by time kill assay; type: functional, organism-based; conditions: time 2-3 hrs
Staphylococcus aureus [14] = assay: Induction of resistant development in methicillin resistant Staphylococcus aureus ATCC 33591 assessed as fold increase by serial passage assay; type: functional
Pseudomonas aeruginosa [15] = assay: Antimicrobial activity against Pseudomonas aeruginosa in presence of LPS/LTA; type: functional
Cell membrane [16] = assay: Induction of outer membrane disruption in Pseudomonas aeruginosa in presence of CaCl2 by NPN uptake assay; type: subcellular
Cell membrane [17] = assay: Induction of cytoplasmic membrane depolarization in Pseudomonas aeruginosa ATCC 27853 by DiSC35 dye based fluorescence method
Cell membrane [18] = assay: Induction of cytoplasmic membrane depolarization in methicillin resistant Staphylococcus aureus ATCC 33591 by DiSC35 dye based fluorescence method
Cell membrane [19] = assay: Induction of membrane disruption in Pseudomonas aeruginosa ATCC 27853 assessed as membrane blebbing at low concentration incubated for 24 hrs by SEM analysis; type: subcellular
Cell membrane [20] = assay: Induction of membrane disruption in Pseudomonas aeruginosa ATCC 27853 assessed as cell lysis at high concentration incubated for 24 hrs by SEM analysis; type: subcellular
Cell membrane [21] = assay: Induction of membrane disruption in methicillin resistant Staphylococcus aureus ATCC 33591 assessed as membrane shrinkage at low concentration incubated for 24 hrs by SEM analysis; type: subcellular
Cell membrane [22] = assay: Induction of membrane disruption in methicillin resistant Staphylococcus aureus ATCC 33591 assessed as irregular atrophy at low concentration incubated for 24 hrs by SEM analysis; type: subcellular
Cell membrane [23] = assay: Induction of membrane disruption in Pseudomonas aeruginosa ATCC 27853 assessed as separation of cytoplasmic membrane at 2 to 4 times MIC incubated for 24 hrs by TEM analysis; type: subcellular
Cell membrane [24] = assay: Induction of membrane disruption in Pseudomonas aeruginosa ATCC 27853 assessed as cytoplasmic leakage at 2 to 4 times MIC incubated for 24 hrs by TEM analysis; type: subcellular
Cell membrane [25] = assay: Induction of membrane disruption in methicillin resistant Staphylococcus aureus ATCC 33591 assessed as membrane collapse at 2 to 4 times MIC incubated for 2 to 4 hrs by TEM analysis; type: subcellular; conditions: time 2-4 hrs
Cell membrane [26] = assay: Induction of membrane disruption in methicillin resistant Staphylococcus aureus ATCC 33591 assessed as separation of cytoplasmic membrane at 2 to 4 times MIC incubated for 2 to 4 hrs by TEM analysis; type: subcellular; conditions: time 2-4 hrs
Cell membrane [27] = assay: Induction of membrane disruption in methicillin resistant Staphylococcus aureus ATCC 33591 assessed as separation […] at 2 to 4 times MIC incubated for 2 to 4 hrs by TEM analysis; type: subcellular; conditions: time 2-4 hrs
Pseudomonas aeruginosa [28] = assay: Induction of ROS generation in Pseudomonas aeruginosa ATCC 27853 by DCFH-DA dye based fluorescence assay; type: functional, organism-based; conditions: TDE = time-dependent effect
Pseudomonas aeruginosa [29] = assay: Induction of protein leakage in Pseudomonas aeruginosa ATCC 27853; type: functional, organism-based; conditions: TDE = time-dependent effect
Pseudomonas aeruginosa [30] = assay: Induction of protein leakage in Pseudomonas aeruginosa ATCC 27853 after 1 to 6 hrs; type: functional, organism-based; conditions: time 1-6 hrs
DNA [31] = assay: Binding affinity to methicillin resistant Staphylococcus aureus DNA at 8 times MIC incubated for 30 mins; type: nucleic-acid assay
DNA [32] = assay: Binding affinity to Pseudomonas aeruginosa DNA at 8 times MIC incubated for 30 mins; type: nucleic-acid assay
DNA [33] = assay: Binding affinity to Staphylococcus epidermidis DNA at 8 times MIC incubated for 30 mins; type: nucleic-acid assay
Pseudomonas aeruginosa [34] = assay: Antimicrobial activity against Pseudomonas aeruginosa ATCC 27853 infected in C57BL/6J mouse assessed as reduction in lung bacterial load at 10 mg/kg, ip measured after 72 hrs […] (reference value: 6.4 10^3CFU/mg); type: functional
Pseudomonas aeruginosa [35] = assay: Antimicrobial activity against Pseudomonas aeruginosa ATCC 27853 infected in C57BL/6J mouse assessed as reduction in IL-1beta at 2.5 mg/kg, ip measured after 72 hrs […]; type: functional, organism-based
Pseudomonas aeruginosa [36] = assay: Antimicrobial activity against Pseudomonas aeruginosa ATCC 27853 infected in C57BL/6J mouse assessed as reduction in IL-6 at 2.5 mg/kg, ip measured after 72 hrs […]; type: functional, organism-based
Staphylococcus aureus [37] = assay: Antimicrobial activity against methicillin resistant Staphylococcus aureus ATCC 33591 infected in skin wound mouse model assessed as reduction in number of inflammatory cells at 1 to 4 mg/kg measured on day 3 and 7 by H and E staining based assay; type: functional, organism-based; conditions: dose 1-4 mg/kg, time 3-7 day
Staphylococcus aureus [38] = assay: Antimicrobial activity against methicillin resistant Staphylococcus aureus ATCC 33591 infected in BALB/c mouse assessed as reduction in sessile bacteria attached on catheters surface at 0.25 to 1 mg/kg infected with bacteria for 2 hrs prior to compound addition on 1, 24 and 48 hrs and measured after 72 hrs […]; type: functional, organism-based; conditions: dose 0.25-1 mg/kg
Staphylococcus aureus [39] = assay: Antimicrobial activity against methicillin resistant Staphylococcus aureus ATCC 33591 infected in BALB/c mouse assessed as biofilm eradication at 0.25 to 1 mg/kg infected with bacteria for 2 hrs prior to compound addition on 1, 24 and 48 hrs and measured after 72 hrs by H and E staining based assay; type: functional, organism-based; conditions: dose 0.25-1 mg/kg

SMILES: CC(C)C[C@H](N)CN(CC(=O)N[C@@H](CCCCN)C(=O)N[C@@H](CC(C)C)C(=O)N[C@@H](CC(C)C)C(=O)N[C@@H](CCCCN)C(=O)N[C@@H](CCCCN)C(=O)N[C@@H](CC(C)C)C(=O)N[C@@H](CC(C)C)C(N)=O)S(=O)(=O)c1ccc(I)cc1 (X1-[X2]KLLKKLL-NH2)
- MIC (Staphylococcus aureus [1]): 2.8 µg/mL (≈ 2.19 µM)
- MHC (Erythrocyte): 256 µg/mL
- Activity (Staphylococcus aureus [2]): Active
- Activity (Staphylococcus aureus [3]): Active
- Activity [4]: Active
- Activity [5]: Active
- Activity (Staphylococcus aureus [6]): Active
- Activity (Pseudomonas aeruginosa [7]): Active
- Activity (Staphylococcus aureus [8]): Active
- Activity [9]: Active
- Activity (Pseudomonas aeruginosa [10]): Active
- Activity (Staphylococcus aureus [11]): Active
- Activity (Pseudomonas aeruginosa [12]): Active
- Activity (Pseudomonas aeruginosa [13]): Active
- Activity (Escherichia coli): Active
- fold change (FC) (Staphylococcus aureus [14]): 2
- MIC (Pseudomonas aeruginosa [15]): ≥ 64 µg/mL
- Activity (Cell membrane [16]): Active
- Activity (Cell membrane [17]): Active
- Activity (Cell membrane [18]): Active
- Activity (Cell membrane [19]): Active
- Activity (Cell membrane [20]): Active
- Activity (Cell membrane [21]): Active
- Activity (Cell membrane [22]): Active
- Activity (Cell membrane [23]): Active
- Activity (Cell membrane [24]): Active
- Activity (Cell membrane [25]): Active
- Activity (Cell membrane [26]): Active
- Activity (Cell membrane [27]): Active
- Activity (Pseudomonas aeruginosa [28]): Tde
- Activity (Pseudomonas aeruginosa [29]): Tde
- Activity (Pseudomonas aeruginosa [30]): Dose-Dependent Effect
- Activity (DNA [31]): Active
- Activity (DNA [32]): Active
- Activity (DNA [33]): Active
- Activity (Pseudomonas aeruginosa [34]): 1 10^3CFU/mg
- Activity (Pseudomonas aeruginosa [35]): Active
- Activity (Pseudomonas aeruginosa [36]): Active
- Activity (Staphylococcus aureus [37]): Active
- Activity (Staphylococcus aureus [38]): Active
- Activity (Staphylococcus aureus [39]): Active
